Results from patent US20200216417A1, “INHIBITORS OF FIBROBLAST ACTIVATION PROTEIN” (Praxis Biotech LLC, priority 2019, published 2020).
pIC50: −log10 of the molar value. Like-named read-outs stand apart in the source and are kept apart here.

Key:
Format in all cases: biochemical
[1] = target: T1, recombinant human FAPα (rhFAPα) (Homo sapiens, UniProt Q12884); assay: FAPα enzymatic exopeptidase (dipeptidase) activity assay, Z-Gly-Pro-AMC; settings: for inhibition at 1 µM: exopeptidase inhibition at 1 μM test compound
T1 construct: purchased R&S system (so in the source)
T1 sequence (Q12884 1-760): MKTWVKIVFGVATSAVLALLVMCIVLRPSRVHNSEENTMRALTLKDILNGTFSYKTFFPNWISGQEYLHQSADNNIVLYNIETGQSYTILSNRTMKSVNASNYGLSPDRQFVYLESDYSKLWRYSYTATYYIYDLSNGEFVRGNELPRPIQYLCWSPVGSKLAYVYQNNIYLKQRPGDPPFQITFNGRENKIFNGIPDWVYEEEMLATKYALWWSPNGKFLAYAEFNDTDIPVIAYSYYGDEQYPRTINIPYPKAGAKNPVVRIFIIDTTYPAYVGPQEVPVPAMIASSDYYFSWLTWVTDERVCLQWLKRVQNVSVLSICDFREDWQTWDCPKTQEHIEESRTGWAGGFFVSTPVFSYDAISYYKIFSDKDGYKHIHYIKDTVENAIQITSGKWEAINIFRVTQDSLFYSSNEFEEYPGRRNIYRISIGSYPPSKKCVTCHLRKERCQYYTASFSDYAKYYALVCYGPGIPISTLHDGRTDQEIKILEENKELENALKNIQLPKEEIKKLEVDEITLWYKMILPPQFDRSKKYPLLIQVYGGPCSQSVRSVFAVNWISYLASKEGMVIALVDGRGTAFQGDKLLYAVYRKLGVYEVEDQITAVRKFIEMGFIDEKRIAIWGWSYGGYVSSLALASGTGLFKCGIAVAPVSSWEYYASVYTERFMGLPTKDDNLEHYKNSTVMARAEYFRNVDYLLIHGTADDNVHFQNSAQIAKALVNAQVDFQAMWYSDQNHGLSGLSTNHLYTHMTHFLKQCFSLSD

[2] = target: T2, recombinant human DPPIV (rhDPPIV) (Homo sapiens, UniProt P27487); assay: DPPIV enzymatic activity assay, H-Gly-Pro-pNA
T2 construct: purchased R&S system (so in the source)
T2 sequence (P27487 whole entry): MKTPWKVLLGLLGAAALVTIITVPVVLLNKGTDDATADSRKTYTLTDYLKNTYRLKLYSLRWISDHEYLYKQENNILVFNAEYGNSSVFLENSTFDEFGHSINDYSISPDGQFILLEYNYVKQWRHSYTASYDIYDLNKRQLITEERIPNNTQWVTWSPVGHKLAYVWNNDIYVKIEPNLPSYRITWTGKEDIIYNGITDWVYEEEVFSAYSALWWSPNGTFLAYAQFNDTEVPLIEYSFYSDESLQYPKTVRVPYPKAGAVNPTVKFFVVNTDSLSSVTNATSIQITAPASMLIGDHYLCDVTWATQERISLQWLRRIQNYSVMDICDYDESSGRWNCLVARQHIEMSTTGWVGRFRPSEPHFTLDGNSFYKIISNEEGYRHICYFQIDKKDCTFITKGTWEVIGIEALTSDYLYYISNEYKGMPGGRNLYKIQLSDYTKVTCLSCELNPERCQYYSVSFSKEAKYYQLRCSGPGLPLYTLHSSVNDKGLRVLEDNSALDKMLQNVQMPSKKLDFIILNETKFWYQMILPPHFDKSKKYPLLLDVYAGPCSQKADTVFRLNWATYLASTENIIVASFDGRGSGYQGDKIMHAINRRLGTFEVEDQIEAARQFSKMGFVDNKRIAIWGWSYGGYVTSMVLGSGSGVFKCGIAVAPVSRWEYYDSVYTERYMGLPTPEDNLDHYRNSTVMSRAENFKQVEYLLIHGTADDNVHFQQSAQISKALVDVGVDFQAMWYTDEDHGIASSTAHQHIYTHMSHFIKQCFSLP

[3] = target: T3, recombinant human PREP (rhPREP) (Homo sapiens, UniProt P48147); assay: PREP enzymatic activity assay, Z-Gly-Pro-AMC
T3 sequence (P48147 1-710): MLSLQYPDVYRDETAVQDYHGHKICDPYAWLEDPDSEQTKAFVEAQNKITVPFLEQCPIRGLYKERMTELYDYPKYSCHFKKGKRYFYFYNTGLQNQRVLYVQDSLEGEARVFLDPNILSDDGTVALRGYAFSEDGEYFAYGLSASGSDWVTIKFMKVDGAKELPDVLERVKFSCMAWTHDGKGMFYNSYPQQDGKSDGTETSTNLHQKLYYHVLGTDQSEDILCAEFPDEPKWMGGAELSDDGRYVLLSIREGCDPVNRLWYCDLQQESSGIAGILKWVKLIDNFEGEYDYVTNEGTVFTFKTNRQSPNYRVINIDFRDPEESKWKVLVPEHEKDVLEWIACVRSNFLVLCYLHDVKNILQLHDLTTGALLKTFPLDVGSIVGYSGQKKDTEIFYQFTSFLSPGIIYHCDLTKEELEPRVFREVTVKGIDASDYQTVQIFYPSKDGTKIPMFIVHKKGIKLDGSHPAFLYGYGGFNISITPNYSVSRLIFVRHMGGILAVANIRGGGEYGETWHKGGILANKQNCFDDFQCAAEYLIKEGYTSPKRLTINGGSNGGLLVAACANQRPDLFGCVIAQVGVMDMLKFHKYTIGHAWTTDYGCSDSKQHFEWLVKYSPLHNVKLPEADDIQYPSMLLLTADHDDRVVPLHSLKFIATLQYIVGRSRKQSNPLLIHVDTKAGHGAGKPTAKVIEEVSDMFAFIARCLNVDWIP

[4] = target: T4, recombinant human DPP9 (rhDPP9) (Homo sapiens, UniProt Q86TI2); assay: DPP9 inhibition assay, 10 ng rhDPP9, Tris-HCl/BSA buffer; settings: Table 3B
T4 construct: purchased R&S system / R&D systems (both sic) 5419-SE
T4 sequence (Q86TI2 whole entry): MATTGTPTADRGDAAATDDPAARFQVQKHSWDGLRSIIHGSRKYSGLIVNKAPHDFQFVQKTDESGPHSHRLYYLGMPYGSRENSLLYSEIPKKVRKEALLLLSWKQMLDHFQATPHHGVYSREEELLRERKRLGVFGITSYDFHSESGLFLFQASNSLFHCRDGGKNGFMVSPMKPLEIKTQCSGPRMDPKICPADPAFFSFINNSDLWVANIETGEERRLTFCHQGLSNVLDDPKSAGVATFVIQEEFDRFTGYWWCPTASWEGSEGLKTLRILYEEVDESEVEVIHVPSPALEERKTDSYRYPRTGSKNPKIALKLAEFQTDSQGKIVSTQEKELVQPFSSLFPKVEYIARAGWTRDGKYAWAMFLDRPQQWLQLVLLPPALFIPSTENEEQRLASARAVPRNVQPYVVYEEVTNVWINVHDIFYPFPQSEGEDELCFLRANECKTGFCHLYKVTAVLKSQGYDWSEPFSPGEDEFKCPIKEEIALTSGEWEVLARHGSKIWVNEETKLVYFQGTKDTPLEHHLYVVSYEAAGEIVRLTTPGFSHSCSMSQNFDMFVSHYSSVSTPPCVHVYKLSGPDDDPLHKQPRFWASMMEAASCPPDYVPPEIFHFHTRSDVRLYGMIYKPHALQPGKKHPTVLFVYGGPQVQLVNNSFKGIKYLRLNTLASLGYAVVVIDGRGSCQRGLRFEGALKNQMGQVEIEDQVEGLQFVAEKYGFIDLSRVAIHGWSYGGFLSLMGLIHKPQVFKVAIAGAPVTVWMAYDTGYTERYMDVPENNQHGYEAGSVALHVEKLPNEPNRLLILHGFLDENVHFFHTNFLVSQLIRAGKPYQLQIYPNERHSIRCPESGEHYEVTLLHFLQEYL

[5] = target: T4, recombinant human DPP9 (rhDPP9); assay: DPP9 enzymatic activity assay, 40 ng rhDPP9, HEPES buffer; settings: Table 3A
[6] = Table 3B, read-out: rhFAPα % exo inh @ 1 μM
[7] = Table 2, read-out: rhFAPα (% exo inh @ 1 μM)
[8] = exopeptidase, Table 2, read-out: rhFAPα (exo IC50)
[9] = exopeptidase, Table 3A, read-out: rhFAPα (exo IC50)

SMILES	pIC50 ([1]; Table 3B, read-out: rhFAP IC50)	inhibition at 1 µM [1, 6]	pIC50 ([2]; Table 3B)	pIC50 ([3]; Table 3B)	pIC50 [4]	inhibition at 1 µM [1, 7]	pIC50 [1, 8]	pIC50 [1, 9]	pIC50 [5]	pIC50 ([2]; Table 3A)	pIC50 ([3]; Table 3A)
C/C(=C\c1cnccc1C(=O)NCC(=O)N1CC(F)(F)C[C@H]1C#N)c1ccc(C(F)(F)F)cc1 [Compound 20]	> 6.00	> 50%	< 5.00	< 5.00	5.00 to 6.00	–	–	–	–	–	–
C/C(=C\c1ccc2nccc(C(=O)NCC(=O)N3CC(F)(F)C[C@H]3C#N)c2c1)c1ccc(Cl)cc1 [Compound 39]	> 6.00	> 50%	< 5.00	< 5.00	> 6.00	–	–	–	–	–	–
N#C[C@@H]1CC(F)(F)CN1C(=O)CNC(=O)c1ccncc1CCc1ccc(Cl)cc1 [Compound 10, (S)-3-(4-chlorophenethyl)-N-(2-(2-cyano-4,4-difluoropyrrolidin-1-yl)-2-oxoethyl)isonicotinamide]	> 6.00	> 50%	5.00 to 6.00	5.00 to 6.00	5.00 to 6.00	> 50%	> 6.00	> 6.00	5.00 to 6.00	5.00 to 6.00	5.00 to 6.00
N#C[C@@H]1CC(F)(F)CN1C(=O)CNC(=O)c1ccnc2ccc(-c3ccc(C(F)(F)F)nc3)cc12 [Compound 38]	> 6.00	> 50%	< 5.00	< 5.00	> 6.00	–	–	–	–	–	–
COc1ccc(/C=C/c2ccc3nccc(C(=O)NCC(=O)N4CC(F)(F)C[C@H]4C#N)c3c2)cn1 [Compound 43]	> 6.00	> 50%	< 5.00	< 5.00	> 6.00	–	–	–	–	–	–
C/C(=C\c1cnccc1C(=O)NCC(=O)N1CC(F)(F)C[C@H]1C#N)c1ccc(Cl)cc1 [Compound 26]	> 6.00	> 50%	< 5.00	< 5.00	> 6.00	–	–	–	–	–	–
N#C[C@@H]1CC(F)(F)CN1C(=O)CNC(=O)c1ccnc2ccc(/C=C/c3ccc(OC(F)(F)F)cc3)cc12 [Compound 48]	> 6.00	> 50%	< 5.00	< 5.00	> 6.00	–	–	–	–	–	–
C/C(=C\c1cnccc1C(=O)NCC(=O)N1CC(F)(F)C[C@H]1C#N)c1ccc(OC(F)(F)F)cc1 [Compound 19]	> 6.00	> 50%	< 5.00	< 5.00	5.00 to 6.00	–	–	–	–	–	–
CC(C)(C)c1ccc(/C=C/c2ccc3nccc(C(=O)NCC(=O)N4CC(F)(F)C[C@H]4C#N)c3c2)cc1 [Compound 50]	> 6.00	> 50%	–	–	5.00 to 6.00	–	–	–	–	–	–
Cc1ccc(/C=C/c2ccc3nccc(C(=O)NCC(=O)N4CC(F)(F)C[C@H]4C#N)c3c2)nc1 [Compound 49]	> 6.00	> 50%	–	–	> 6.00	–	–	–	–	–	–
N#C[C@@H]1CC(F)(F)CN1C(=O)CNC(=O)c1ccncc1/C=C/c1ccc(OC(F)(F)F)cc1 [Compound 33]	> 6.00	> 50%	< 5.00	< 5.00	> 6.00	–	–	–	–	–	–

Results, then the molecule that gave them:

pIC50 ([1]; Table 3B, read-out: rhFAP IC50)	inhibition at 1 µM [1, 6]	pIC50 ([2]; Table 3B)	pIC50 ([3]; Table 3B)	pIC50 [4]	inhibition at 1 µM [1, 7]	pIC50 [1, 8]	pIC50 [1, 9]	pIC50 [5]	pIC50 ([2]; Table 3A)	pIC50 ([3]; Table 3A)	SMILES
> 6.00	> 50%	< 5.00	5.00 to 6.00	–	–	–	–	–	–	–	C[C@@H](Nc1cnccc1C(=O)NCC(=O)N1CC(F)(F)C[C@H]1C#N)c1ccc(F)cc1 [Compound 191]
> 6.00	> 50%	< 5.00	< 5.00	5.00 to 6.00	–	–	–	–	–	–	COc1ccc(/C(C)=C/c2cnccc2C(=O)NCC(=O)N2CC(F)(F)C[C@H]2C#N)cc1 [Compound 29]
> 6.00	> 50%	< 5.00	5.00 to 6.00	5.00 to 6.00	> 50%	> 6.00	> 6.00	5.00 to 6.00	< 5.00	–	C=C(Cc1cnccc1C(=O)NCC(=O)N1CC(F)(F)C[C@H]1C#N)c1ccc(F)cc1 [Compound 14, (S)—N-(2-(2-cyano-4,4-difluoropyrrolidin-1-yl)-2-oxoethyl)-3-(2-(4-fluorophenyl)allyl)isonicotinamide]
> 6.00	> 50%	< 5.00	< 5.00	> 6.00	–	–	–	–	–	–	N#C[C@@H]1CC(F)(F)CN1C(=O)CNC(=O)c1ccnc2ccc(-c3ccc(C(F)(F)F)cc3)cc12 [Compound 35]
> 6.00	> 50%	–	–	> 6.00	–	–	–	–	–	–	N#C[C@@H]1CC(F)(F)CN1C(=O)CNC(=O)c1ccnc2ccc(/C=C/c3ccc(C(F)(F)F)cc3)cc12 [Compound 51]
> 6.00	> 50%	–	–	5.00 to 6.00	> 50%	> 6.00	> 6.00	5.00 to 6.00	–	–	N#C[C@@H]1CC(F)(F)CN1C(=O)CNC(=O)c1ccnc(N2CCN(C(c3ccc(F)cc3)c3ccc(F)cc3)CC2)c1 [Compound 6, (S)-2-(4-(bis(4-fluorophenyl)methyl)piperazin-1-yl)-N-(2-(2-cyano-4,4-difluoropyrrolidin-1-yl)-2-oxoethyl)isonicotinamide]
> 6.00	> 50%	< 5.00	< 5.00	> 6.00	–	–	–	–	–	–	N#C[C@@H]1CC(F)(F)CN1C(=O)CNC(=O)c1ccnc2ccc(/C=C/c3ccc4cc(Cl)ccc4c3)cc12 [Compound 42]
> 6.00	> 50%	< 5.00	5.00 to 6.00	5.00 to 6.00	> 50%	> 6.00	> 6.00	5.00 to 6.00	< 5.00	5.00 to 6.00	N#C[C@@H]1CC(F)(F)CN1C(=O)CNC(=O)c1ccncc1CCc1ccc(F)cc1 [Compound 11, (S)—N-(2-(2-cyano-4,4-difluoropyrrolidin-1-yl)-2-oxoethyl)-3-(4-fluorophenethyl)isonicotinamide]
> 6.00	> 50%	< 5.00	–	–	–	–	–	–	–	–	C[C@H](Nc1cnccc1C(=O)NCC(=O)N1CC(F)(F)C[C@H]1C#N)c1ccc(F)cc1 [Compound 190]
> 6.00	> 50%	< 5.00	< 5.00	< 5.00	–	–	–	–	–	–	N#C[C@@H]1CC(F)(F)CN1C(=O)CNC(=O)c1ccncc1C#Cc1ccc(Cl)cc1 [Compound 37]
> 6.00	> 50%	–	–	5.00 to 6.00	–	–	–	–	–	–	CN1CCN(c2ccc(-c3ccc4nccc(C(=O)NCC(=O)N5CC(F)(F)C[C@H]5C#N)c4c3)cn2)CC1 [Compound 52]
> 6.00	> 50%	< 5.00	< 5.00	–	–	–	–	–	–	–	CC(C)(O)c1ccc(-c2ccc3nccc(C(=O)NCC(=O)N4CC(F)(F)C[C@H]4C#N)c3c2)cc1 [Compound 195]
> 6.00	> 50%	< 5.00	< 5.00	< 5.00	–	–	–	–	–	–	COc1ccc(C#Cc2cnccc2C(=O)NCC(=O)N2CC(F)(F)C[C@H]2C#N)cc1 [Compound 36]
> 6.00	> 50%	5.00 to 6.00	< 5.00	5.00 to 6.00	–	–	–	–	–	–	N#C[C@@H]1CC(F)(F)CN1C(=O)CNC(=O)c1ccncc1/C=C/c1ccc(C(F)(F)F)cc1 [Compound 24]
